Data taken from US20180078576A1, “SULPHATED XYLANS FOR TREATMENT OR PROPHYLAXIS OF RESPIRATORY DISEASES” (Paradigm Biopharmaceuticals Limited, priority 2007, published 2018).

Tests used:
IL-5 = target: T1, IL-5 (Homo sapiens, UniProt P05113); assay: IL-5 dependent Ba/F-IL-5 cell proliferation (luciferase); format: cell-based; settings: dose-response, FIG. 4
T1 construct: made in house; host or cells: baculovirus expression system (from the general materials paragraph)
T1 sequence (P05113 20-134): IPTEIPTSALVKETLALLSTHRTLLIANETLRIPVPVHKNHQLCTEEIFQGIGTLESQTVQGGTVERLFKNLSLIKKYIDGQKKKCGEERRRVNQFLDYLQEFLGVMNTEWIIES
Experimental: PPS inhibited the proliferation of an IL-5 responsive cell line. This occurs at very low doses and is not due to a toxic effect of the PPS as other similarly sulfated polysaccharides have no affect in this assay. These experiments are performed with the IL-5 responsive cells, Ba/F-IL-5. The Ba/F-IL-5 cells were derived from the Ba/F3 cell line.
The Ba/F3 cell line was transformed to be both IL-5 dependent and to express luciferase by co-transfection of the cells with pGL3 control vector (Promega, USA) and pEE6 hcmv-IL-5Rα. The control vector, pGL3 expresses a modified luciferase under the direct control of the SV40 promoter and enhancer, but contains no selectable marker. To prepare pEE6 hcmv-hIL-5Rα a full length human IL-5 receptor α chain (hIL-5R-α) was cloned by RT PCR from HL60 cells. The preparation of the Ba/F-IL-5 cells has been described by Coombe et al, Journal of Immunological Methods 215: 145-150, 1998. […]
After transfection, positive transfectants are selected in 3 μg/ml puromycin. […] The cells are counted with a Coulter Z2 Particle Counter and Size Analyzer (Coulter Electronics, England) and routinely 1.6×10^4 cells are added to microplate wells that contain either no IL-5 (negative control) or various dilutions of IL-5. When the effect of PPS, or other sulfated polysaccharides is to be measured, the wells also contain various concentrations of these molecules. […]

Elastase = target: T2, Elastase (Homo sapiens, UniProt P08246); assay: Elastase activity on collagen substrate; format: biochemical; settings: collagen coated wells, 37° C., 30 minutes
T2 sequence (P08246 30-267): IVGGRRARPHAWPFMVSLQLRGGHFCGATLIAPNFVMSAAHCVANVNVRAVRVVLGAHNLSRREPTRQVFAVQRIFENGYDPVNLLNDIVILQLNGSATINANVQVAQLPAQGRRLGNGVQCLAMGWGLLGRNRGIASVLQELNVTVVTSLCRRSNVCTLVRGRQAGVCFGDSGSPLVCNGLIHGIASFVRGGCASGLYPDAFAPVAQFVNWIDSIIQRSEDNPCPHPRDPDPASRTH
Experimental: Elastase activity was also measured using a physiological substrate, collagen. For these experiments collagen was coated onto the wells of a microplate. Tris buffer (50 μl) was added together with 25 μl of either inhibitor (PPS or other sulfated polysaccharides) or buffer. The plate was incubated at 37° C. for 30 minutes, before staining the wells for protein. After drying the wells at room temperature the remaining colour was dissolved by adding 200 μl of lysis solution (10% w/v SDS in DMSO) and the OD measured at […]. Control experiments include collagen without enzyme digestion as 100% values and with enzyme digestion but without inhibitor as 0% values.

IL-13 = IL-13 (Homo sapiens, UniProt P35225); assay: IL-13 dependent proliferation of TF-1 cells; format: cell-based
Chain of IL-13 (P35225 25-146): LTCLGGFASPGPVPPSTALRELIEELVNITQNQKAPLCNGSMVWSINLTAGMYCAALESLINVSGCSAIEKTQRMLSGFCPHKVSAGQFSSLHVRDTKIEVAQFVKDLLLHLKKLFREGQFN
From the text: IL-13 is a cytokine with a key role in asthma and allergic disease (including allergic rhinitis) and it seems particularly important in […] the airway hyperreactivity seen with asthma (Wills-Karp, Immunol. Rev. 202:175-190, 2004). […] Pentosan polysulfate (PPS) and a DP5 sulfated xylan inhibited the proliferation of a human IL-13 responsive cell line. This occurs at very low doses and is not due to a toxic effect of the PPS because other, similarly sulfated polysaccharides, at the same concentrations of IL-13 and polysaccharide have no effect. These experiments utilize the TF-1 cells. TF-1 cells were originally established from a bone marrow sample from a person with severe pancytopenia. […]
The proliferation assays are carried out in 96-well microplates suitable for such assays (Falcon). […] The cells are counted with a Coulter Z2 Particle Counter and Size Analyzer (Coulter Electronics, England) and routinely 2.5×10^4 cells are added to microplate wells that contain either no IL-13 (negative control) or various dilutions of IL-13. When the effect of PPS is to be measured, the wells also contain various concentrations of this molecule. The cells proliferate for 48 hours at 37° C. in a humidified atmosphere, after which the number of cells present is quantified by staining with the AQUEOUS ONE dye (30 μl/well) for 3 hours and then absorbance is read at 490 nm.

Inhibition of IL-5 dependent Ba/F-IL-5 cell proliferation (in words) (IL-5): effective inhibitor | Inhibition of elastase activity on collagen (in words) (Elastase): effective elastase inhibitor | Inhibition of IL-13 dependent proliferation of TF-1 cells (in words) (IL-13; FIG. 16, IL-13 2.5 ng/ml): markedly inhibit | IL-13 mediated cell proliferation blocked (IL-13; PPS concentrations of 5-10 μg/ml, TF-1 cells, 48 hours): 75-80%
Substance: Pentosan polysulfate [PPS]
